The target of the assay is T1, Bcl-2 protein (Recombinant Human Bcl-2 Protein) (Homo sapiens, UniProt P10415).
T1 construct: purchased Novus Biologicals NBP2-34889
Put plainly: AS-MS evaluation of binding of the Example 4 mixture library (1200 compounds/well) to Bcl-2, ASMS ratio (%). The method in brief: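 Affinity-selection MS: 1200 cpds/well, 20 nM each; hBcl-2 20 μM; 25 mM Tris pH 7.4/150 mM NaCl/0.025% Tween-20/1 mM DTT; 1 h, 23 °C, dark; P-2 size-exclusion spin, MeCN:MeOH 1:1 extraction; RP LC/MS; ratio vs no-protein STD and SEC blank.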

Setting [1] is: AS-MS, Example 4 mixture library, Bcl-2, replicate n = 1.
The mark [2] stands for this setting: AS-MS, Example 4 mixture library, Bcl-2, replicate n = 2.
Setting [3] is: AS-MS, mixture of 1200 compounds/well, Bcl-2 protein, replicate n = 1.
Setting [4] is: AS-MS, mixture of 1200 compounds/well, Bcl-2 protein, replicate n = 2.
The mark [5] stands for this setting: replicate n = 1, mixture library, value belongs to the MS peak assigned to the compound.
[6] abbreviates: replicate n = 2, mixture library, value belongs to the MS peak assigned to the compound.

Molecules are shown by their SMILES.

T1 sequence (P10415 whole entry): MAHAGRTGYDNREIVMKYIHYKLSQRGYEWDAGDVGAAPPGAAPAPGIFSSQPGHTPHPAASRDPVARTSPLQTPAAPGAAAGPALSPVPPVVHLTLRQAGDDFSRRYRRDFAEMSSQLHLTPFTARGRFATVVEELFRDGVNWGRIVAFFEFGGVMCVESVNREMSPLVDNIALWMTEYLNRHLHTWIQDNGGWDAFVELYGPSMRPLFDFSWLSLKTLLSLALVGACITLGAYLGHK

As for `CCOc1cccc(-c2cnn(-c3cc(C(=O)N4CCN(c5ccc(C(=O)NS(=O)(=O)c6ccc(NCCSc7ccccc7)c(C(F)(F)F)c6)nn5)CC4)cc(C(F)(F)F)c3)c2)c1` [Compound B2R021-01, 6-[4-[3-[4-(3-Ethoxyphenyl)pyrazol-1-yl]-5-(trifluoromethyl)benzoyl]piperazin-1-yl]-N-[4-(2-phenylsulfanylethylamino)-3-(trifluoromethyl)phenyl]sulfonylpyridazine-3-carboxamide], the “ASMS ratio (%) n = 1” value under setting [1] amounted to 13.0%. Moreover, the “ASMS ratio (%) n = 2” value under setting [2] amounted to 0.0%.
Turning to `CCCNC(=O)c1ccc(N2CCN(Cc3ccc(-c4cncc(OCC)c4)c(F)c3)CC2)nn1` [Compound B1M078-01], the “ASMS ratio (%) n = 1” value under setting [3] turned out to be 0.0%. The “ASMS ratio (%) n = 2” value under setting [4] amounted to 0.0%.
Turning to `CCOc1cncc(-c2ccc(C(=O)N3CCN(c4ccc(C(=O)NS(=O)(=O)c5ccc(NCCSc6ccccc6)c(C(F)(F)F)c5)nn4)CC3)c3ccccc23)c1` [Compound B2R014-01, 6-[4-[4-(5-Ethoxypyridin-3-yl)naphthalene-1-carbonyl]piperazin-1-yl]-N-[4-(2-phenylsulfanylethylamino)-3-(trifluoromethyl)phenyl]sulfonylpyridazine-3-carboxamide], the “ASMS ratio (%) n = 1” value under setting [1] is on record as 18.6%. The “ASMS ratio (%) n = 2” value under setting [2] is reported as 15.1%.
The matching figures for `CCOc1cncc(-c2ccc(C(=O)N3CCN(c4ccc(C(=O)NS(=O)(=O)CCC(F)(F)F)cc4)CC3)c3ccccc23)c1` [Compound B2N036-01, 4-[4-[4-(5-Ethoxypyridin-3-yl)naphthalene-1-carbonyl]piperazin-1-yl]-N-(3,3,3-trifluoropropylsulfonyl)benzamide]: 0.0% and 0.4%.
For `CCOc1cccc(-c2ccc(C(C)N3CCN(c4ccc(C(=O)NS(=O)(=O)c5ccc(NCCSc6ccccc6)c(C(F)(F)F)c5)cc4)CC3)c(F)c2)c1` (stereo not drawn) [Compound B2R099-01, 4-[4-[1-[4-(3-Ethoxyphenyl)-2-fluorophenyl]ethyl]piperazin-1-yl]-N-[4-(2-phenylsulfanylethylamino)-3-(trifluoromethyl)phenyl]sulfonylbenzamide], the “ASMS ratio (%) n = 1” value under setting [1] is −12.6%. Besides, the “ASMS ratio (%) n = 2” value under setting [2] is reported as −7.5%.
With `CCOc1cccc(-c2ccc(CN3CCN(c4ccc(C(=O)N(CC)CC)nn4)CC3)cc2F)c1` [Compound B4J077-01, 6-[4-[[4-(3-Ethoxyphenyl)-3-fluorophenyl]methyl]piperazin-1-yl]-N,N-diethylpyridazine-3-carboxamide], the “ASMS ratio (%) n = 2” value (Example 4 mixture library, 1200 compounds/well, Bcl-2 protein, replicate n = 2, value belongs to the MS peak assignable to the compound) is reported as 5.5%.
For the compound `CCOc1cncc(-c2ccc(CN3CCN(c4ccc(C(=O)NS(=O)(=O)c5ccc(NCCSc6ccccc6)c(C(F)(F)F)c5)cc4)CC3)c3ccccc23)c1` [Compound B2R066-01, 4-[4-[[4-(5-Ethoxypyridin-3-yl)naphthalen-1-yl]methyl]piperazin-1-yl]-N-[4-(2-phenylsulfanylethylamino)-3-(trifluoromethyl)phenyl]sulfonylbenzamide], the “ASMS ratio (%) n = 1” value under setting [1] stood at 19.8%. In addition, the “ASMS ratio (%) n = 2” value under setting [2] was −10.7%.
As for `CCOc1cncc(C#Cc2ccccc2C(=O)N2CCN(c3ccc(C(=O)NS(=O)(=O)C(C)(C)C)cc3)CC2)c1` [Compound B2L030-01, N-tert-Butylsulfonyl-4-[4-[2-[2-(5-ethoxypyridin-3-yl)ethynyl]benzoyl]piperazin-1-yl]benzamide], the “ASMS ratio (%) n = 1” value under setting [5] is 0.0%. Besides, the “ASMS ratio (%) n = 2” value under setting [6] was determined as 0.0%.
As for `CCOc1cccc(C#Cc2ccccc2C(=O)N2CCN(c3ccc(C(=O)NS(=O)(=O)CCC(F)(F)F)nn3)CC2)c1` [Compound B2N007-01, 6-[4-[2-[2-(3-Ethoxyphenyl)ethynyl]benzoyl]piperazin-1-yl]-N-(3,3,3-trifluoropropylsulfonyl)pyridazine-3-carboxamide], the “ASMS ratio (%) n = 1” value under setting [1] was found to be 0.0%. For the same compound, under setting [2], the “ASMS ratio (%) n = 2” value stood at 0.0%.
With `CCOc1cncc(-c2cc(OC)c(CN3CCN(c4ccc(C(=O)NS(=O)(=O)C(C)(C)C)nn4)CC3)c(OC)c2)c1` [Compound B2L086-01], under setting [2], the “ASMS ratio (%) n = 2” value amounted to 0.0%.
Regarding `CCCNC(=O)c1ccc(N2CCN(C(=O)CCc3ccccc3-c3cccc(OCC)c3)CC2)nn1` [Compound B1M011-01], under setting [3], the “ASMS ratio (%) n = 1” value was found to be 18.6%. Under setting [4], the “ASMS ratio (%) n = 2” value amounted to 7.5%.
In the case of `CCOc1cccc(-c2cc(CN3CCN(c4ccc(C(=O)NS(C)(=O)=O)nn4)CC3)cc(OCC)c2)c1` [Compound B2I081-01, 6-[4-[[3-Ethoxy-5-(3-ethoxyphenyl)phenyl]methyl]piperazin-1-yl]-N-methylsulfonylpyridazine-3-carboxamide], under setting [5], the “ASMS ratio (%) n = 1” value was 0.0%. Also, the “ASMS ratio (%) n = 2” value under setting [6] is given as 0.0%.
Take `CCCNC(=O)c1ccc(N2CCN(C(=O)c3ccc(-c4cccc(OCC)c4)c(C)c3)CC2)cc1` [Compound B1M025-01]: under setting [3], the “ASMS ratio (%) n = 1” value is 3.6%. Also, the “ASMS ratio (%) n = 2” value under setting [4] is given as −1.2%.
As to `CCOc1cccc(C#Cc2ccccc2CN2CCN(c3ccc(C(=O)NS(=O)(=O)c4ccc(NCCSc5ccccc5)c(C(F)(F)F)c4)nn3)CC2)c1` [Compound B2R095-01, 6-[4-[[2-[2-(3-Ethoxyphenyl)ethynyl]phenyl]methyl]piperazin-1-yl]-N-[4-(2-phenylsulfanylethylamino)-3-(trifluoromethyl)phenyl]sulfonylpyridazine-3-carboxamide], the “ASMS ratio (%) n = 1” value under setting [1] was 42.2%. For the same compound, the “ASMS ratio (%) n = 2” value under setting [2] turned out to be 5.5%.
For `CCOc1cncc(-c2ccc(CN3CCN(c4ccc(C(=O)NS(=O)(=O)c5ccc(NCCSc6ccccc6)c(C(F)(F)F)c5)nn4)CC3)c(OC)c2)c1` [Compound B2R080-01, 6-[4-[[4-(5-Ethoxypyridin-3-yl)-2-methoxyphenyl]methyl]piperazin-1-yl]-N-[4-(2-phenylsulfanylethylamino)-3-(trifluoromethyl)phenyl]sulfonylpyridazine-3-carboxamide], in that order: 16.7% and 21.2%.
In the case of `CCOc1cccc(-c2cc(CN3CCN(c4ccc(C(=O)NS(C)(=O)=O)nn4)CC3)cc(OC(F)(F)F)c2)c1` [Compound B2I089-01, 6-[4-[[3-(3-Ethoxyphenyl)-5-(trifluoromethoxy)phenyl]methyl]piperazin-1-yl]-N-methylsulfonylpyridazine-3-carboxamide], the “ASMS ratio (%) n = 1” value under setting [5] is reported as 1.4%. Further, under setting [6], the “ASMS ratio (%) n = 2” value was 0.0%.
In the case of `CCOc1cccc(-c2ccc(C(=O)N3CCN(c4ccc(C(=O)NS(=O)(=O)c5ccc(NCCSc6ccccc6)c(C(F)(F)F)c5)cc4)CC3)cc2F)c1` [Compound B2R027-01, 4-[4-[4-(3-Ethoxyphenyl)-3-fluorobenzoyl]piperazin-1-yl]-N-[4-(2-phenylsulfanylethylamino)-3-(trifluoromethyl)phenyl]sulfonylbenzamide], the “ASMS ratio (%) n = 1” value under setting [1] was −3.7%. The “ASMS ratio (%) n = 2” value under setting [2] is on record as 1.2%.
For `CCOc1cccc(C#Cc2ccccc2CN2CCN(c3ccc(C(=O)NS(=O)(=O)CCC(F)(F)F)nn3)CC2)c1` [Compound B2N095-01], in that order: 0.0% and 0.0%.
`CCCNC(=O)c1ccc(N2CCN(C(=O)c3cc(-c4cncc(OCC)c4)cc(C(F)(F)F)c3)CC2)nn1` [Compound B1M018-01]: the “ASMS ratio (%) n = 1” value under setting [3] turned out to be 0.0%. Besides, under setting [4], the “ASMS ratio (%) n = 2” value worked out at 0.0%.

The record behind these values is patent publication US20250154686A1, “COMPOUND LIBRARY” (CHUGAI SEIYAKU KABUSHIKI KAISHA, priority 2021, published 2025).
